Reference: patent US8507535B2 (Hoffmann-La Roche Inc., priority 2010, dated 2013)
Like-named read-outs stand apart in the source and are kept apart here.

Key:
[1] = phase II trial, cited from earlier work
human NK3 receptor = human NK3 receptor (Homo sapiens (Human), UniProt P29371); assay: [3H]SR142801 competition binding assay; conditions: membranes from HEK293 cells transiently expressing recombinant human NK3 receptor, [3H]SR142801 radioligand
Experimental: [^3H]SR142801 Competition Binding Assay
hNK3 receptor binding experiment were performed using [^3H]SR142801 (Catalog No. TRK1035, specific activity: 74.0 Ci/mmol, Amersham, GE Healthcare UK limited, Buckinghamshire, UK) and membrane isolated from HEK293 cells transiently expressing recombinant human NK3 receptor. After thawing, the membrane homogenates were centrifuged at 48,000×g for 10 min at 4° C., the pellets were resuspended in the 50 mM Tris-HCl, 4 mM MnCl2, 1 μM phosphoramidon, 0.1% BSA binding buffer at pH 7.4 to a final assay concentration of 5 μg protein/well. For inhibition experiments, membranes were incubated with [^3H]SR142801 at a concentration equal to KD value of radioligand and 10 concentrations of the inhibitory compound (0.0003-10 μM) (in a total reaction volume of 500 μl) for 75 min at room temperature (RT). At the end of the incubation, membranes were filtered onto unitfilter (96-well white microplate with bonded GF/C filter preincubated 1 h in 0.3% PEI+0.3% BSA, Packard BioScience, Meriden, Conn.) with a Filtermate 196 harvester (Packard BioScience) and washed 4 times with ice-cold 50 mM Tris-HCl, pH 7.4 buffer. Nonspecific binding was measured in the presence of 10 μM SB222200 for both radioligands. The radioactivity on the filter was counted (5 min) on a Packard Top-count microplate scintillation counter with quenching correction after addition of 45 μl of microscint 40 (Can berra Packard S. A., Zurich, Switzerland) and shaking for 1 h. Inhibition curves were fitted according to the Hill equation: y=100/(1+(x/IC50)^nH), where nH=slope factor using Excel-fit 4 software (Microsoft). IC50 values were derived from the inhibition curve and the affinity constant (Ki) values were calculated using the Cheng-Prussoff equation Ki=IC50/(1+[L]/KD) where [L] is the concentration of radioligand and KD is its dissociation constant at the receptor, derived from the saturation isotherm. All experiments were performed in duplicate and the mean±standard error (SEM) of the individual Ki values was calculated.

Chain of human NK3 receptor (P29371 whole entry): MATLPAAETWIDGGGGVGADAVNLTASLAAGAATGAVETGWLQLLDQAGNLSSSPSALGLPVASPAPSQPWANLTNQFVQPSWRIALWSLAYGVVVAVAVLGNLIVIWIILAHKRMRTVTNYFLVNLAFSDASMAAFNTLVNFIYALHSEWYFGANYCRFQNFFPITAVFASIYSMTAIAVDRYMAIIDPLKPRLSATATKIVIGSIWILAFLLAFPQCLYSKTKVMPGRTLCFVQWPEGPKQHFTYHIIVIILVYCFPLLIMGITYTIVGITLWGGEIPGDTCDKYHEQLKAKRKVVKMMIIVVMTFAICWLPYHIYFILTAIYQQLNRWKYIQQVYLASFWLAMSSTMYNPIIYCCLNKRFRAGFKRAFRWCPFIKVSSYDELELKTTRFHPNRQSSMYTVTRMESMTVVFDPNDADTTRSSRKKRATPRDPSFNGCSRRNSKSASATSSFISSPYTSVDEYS

SMILES: CC(=O)N(C)C1(c2ccccc2)CCN(CCC[C@]2(c3ccc(Cl)c(Cl)c3)CCCN(C(=O)c3ccccc3)C2)CC1 [SR 142,801, Osanetant]
- activity on positive symptoms of schizophrenia ([1]; altered behaviour, delusion, hallucinations, extreme emotions, excited motor activity, incoherent speech): active on positive symptoms of schizophrenia
- activity on negative symptoms of schizophrenia ([1]; depression, anhedonia, social isolation, memory and attention deficits): inactive in the treatment of negative symptoms

SMILES: Cc1noc(-c2ccc(C(=O)N3C[C@H](c4ccc(Cl)cc4)[C@@](C)(COc4ccc(Cl)cn4)C3)cc2)n1 (racemic) [Example 7, [(3RS,4RS)-4-(4-Chloro-phenyl)-3-(5-chloro-pyridin-2-yloxymethyl)-3-methyl-pyrrolidin-1-yl]-[4-(3-methyl-[1,2,4]oxadiazol-5-yl)-phenyl]-methanone]
- Ki (human NK3 receptor; read-out: Ki (uM) hNK3): 0.0043 µM

SMILES: Cc1ccc(N2CCC(C(=O)N3C[C@H](c4ccc(Cl)cc4)[C@@](C)(COc4ccc(Cl)cn4)C3)CC2)nc1 (racemic) [Example 15, [(3RS,4RS)-4-(4-Chloro-phenyl)-3-(5-chloro-pyridin-2-yloxymethyl)-3-methyl-pyrrolidin-1-yl]-(5′-methyl-3,4,5,6-tetrahydro-2H-[1,2′]bipyridinyl-4-yl)-methanone]
- Ki (human NK3 receptor; second half of table, head prints nM, read-out: Ki (nM) hNK3): 0.015 µM

SMILES: C[C@]1(COc2ccc(Cl)cn2)CN(C(=O)C2CCOCC2)C[C@@H]1c1ccc(Cl)cc1 (racemic) [Example 10, [(3RS,4RS)-4-(4-Chloro-phenyl)-3-(5-chloro-pyridin-2-yloxymethyl)-3-methyl-pyrrolidin-1-yl]-(tetrahydro-pyran-4-yl)-methanone]
- Ki (human NK3 receptor; read-out: Ki (uM) hNK3): 0.0874 µM

SMILES: C[C@]1(COc2ccc(Cl)cn2)CN(C(=O)N2CCN(S(C)(=O)=O)CC2)C[C@@H]1c1ccc(Cl)cc1 (racemic) [Example 2, [(3RS,4RS)-4-(4-Chloro-phenyl)-3-(5-chloro-pyridin-2-yloxymethyl)-3-methyl-pyrrolidin-1-yl]-(4-methanesulfonyl-piperazin-1-yl)-methanone]
- Ki (human NK3 receptor; read-out: Ki (uM) hNK3): 0.0478 µM
